Our source for the remaining activity values is PMC4701951, “Characterization of a New M13 Metallopeptidase from Deep-Sea Shewanella sp. E525-6 and Mechanistic Insight into Its Catalysis” (Frontiers in Microbiology, 2016).

In the test the target is T1, PepS (Shewanella sp. E525-6, UniProt A0A140CQI1).
T1 construct: mature N-terminus L17-T-A-C-N21 (16-residue signal peptide removed)
T1 sequence (A0A140CQI1 17-694): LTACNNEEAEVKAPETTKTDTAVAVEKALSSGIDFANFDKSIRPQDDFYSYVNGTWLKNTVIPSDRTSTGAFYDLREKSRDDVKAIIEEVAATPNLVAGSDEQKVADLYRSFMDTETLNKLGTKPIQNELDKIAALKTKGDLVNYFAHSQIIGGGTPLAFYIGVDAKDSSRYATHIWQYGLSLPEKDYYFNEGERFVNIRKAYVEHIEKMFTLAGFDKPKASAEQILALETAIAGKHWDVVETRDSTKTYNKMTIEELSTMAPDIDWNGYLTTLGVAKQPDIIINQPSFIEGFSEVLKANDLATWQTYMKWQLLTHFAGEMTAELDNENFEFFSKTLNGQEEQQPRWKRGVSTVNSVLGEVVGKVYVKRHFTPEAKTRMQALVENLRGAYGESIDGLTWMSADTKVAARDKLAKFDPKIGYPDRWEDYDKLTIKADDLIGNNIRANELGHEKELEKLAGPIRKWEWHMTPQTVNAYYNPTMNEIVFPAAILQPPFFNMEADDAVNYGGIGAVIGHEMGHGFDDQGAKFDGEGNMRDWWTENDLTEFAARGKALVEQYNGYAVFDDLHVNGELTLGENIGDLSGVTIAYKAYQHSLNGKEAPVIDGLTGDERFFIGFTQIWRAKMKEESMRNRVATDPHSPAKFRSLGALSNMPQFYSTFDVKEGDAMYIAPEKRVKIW
As to the kind of experiment: residual peptidase activity, HPLC of product FSP. It is filed as biochemical. From the text:
residual peptidase activity, HPLC of product FSP on PepS

Take `CC(C)C[C@H](NP(=O)(O)O[C@@H]1O[C@@H](C)[C@H](O)[C@@H](O)[C@H]1O)C(=O)N[C@@H](Cc1c[nH]c2ccccc12)C(=O)O` [Phosphoramidon]: the remaining activity at 10 µM came out at 4.3 ± 0.4%.

As a reminder, the remaining activity is the signal under treatment as a percentage of the control signal. Low readings indicate little activity left, high ones much activity left.
